From patent US20190054090A1, “COMBINATION OF A BTK INHIBITOR AND A CHECKPOINT INHIBITOR FOR TREATING CANCERS” (Gilead Sciences, Inc., priority 2015, published 2019)

Legend:
[1] = test system: L1210 cell line (JCRB), mouse lymphocytic leukemia; experiment: in vivo anti-tumor activity in L1210 syngeneic tumors; settings: Compound A1 54 mg/kg/day in diet (0.037%), 4H2 i.p. 20 mg/kg day 0 then 10 mg/kg every 6 days, n=8
Description: (§1) This example evaluated in vivo anti-tumor activity of a BTK inhibitor (Compound A1) in combination with an anti-PD-1 antibody (4H2) in syngeneic tumors. Similar protocols as described above were used with L1210 cell line (JCRB), mouse lymphocytic leukemia.
(§2) L1210-bearing DBA-2 mice were subcutaneously injected (5×10^5 cells/animal). Mice were randomized into four groups (n=8 per group) for treatment with vehicle (CRF-1), Compound A1, 4H2 (10 mg/kg every 6 days), or Compound A1 and 4H2. Mice were fed diets containing of Compound A1. 4H2 was administered intraperitoneally at 20 mg/kg on day 0 followed by 10 mg/kg every 6 days. The average dose of Compound A1 was 54 mg/kg/day (CRF-1 at 0.037%).

[2] = body weight of L1210-bearing DBA-2 mice; format: in vivo; settings: Compound A1 54 mg/kg/day in diet (0.037%), 4H2 i.p. 20 mg/kg day 0 then 10 mg/kg every 6 days, n=8
Description: as §1, §2

[3] = body weight of A20-bearing BALB/c mice; format: in vivo; settings: first study, Compound A1 46 mg/kg/day in diet (0.037%), 4H2 i.p. 20 mg/kg day 0 then 10 mg/kg every 6 days, n=9
Description: (§3) A20-bearing BALB/c mice were subcutaneously injected (5×10^6 cells per animal). Day 6 after cell injection (day 0), mice having the tumor volume of about were 200 mm^3 were randomized into four groups (n=9 per group) for treatment with vehicle (CRF-1), Compound A1, 4H2, or Compound A1 and 4H2. Mice were fed diets containing of Compound A1. 4H2 was administered intraperitoneally at 20 mg/kg on day 0 followed by 10 mg/kg every 6 days; the average dose of Compound A1 was 46 mg/kg/day (CRF-1 at 0.037%) in the first and second studies or 15 mg/kg/day (CRF-1 at 0.012%) in the second study. During the studies, tumor volume (long axis of tumor×(short axis of tumor)^2×0.5), tumor growth inhibition rate (TGI, as compared to tumors of the vehicle control group), temporal changes in tumor volume, body weight, or food intake were determined. The studies were terminated when tumors reached a maximum of 3,000 mm^3.
In the second study, the effects of Compound A1 at 15 mg/kg/day (CRF-1 at 0.012%) and 46 mg/kg/day (CRF-1 at 0.037%) were evaluated. Similar protocols as described above were used. The study (n=12 per group) was terminated at day 17.

[4] = test system: A20 cell line (ATCC), mouse B-cell lymphoma; experiment: in vivo anti-tumor activity in A20 syngeneic tumors; settings: first study, Compound A1 46 mg/kg/day in diet (0.037%), 4H2 i.p. 20 mg/kg day 0 then 10 mg/kg every 6 days, n=9
Description: This example evaluated in vivo anti-tumor activity of a BTK inhibitor Compound A1 in combination with an anti-PD-1 antibody (4H2), (Kitayama Labes Co., Ltd) in syngeneic tumors.
A20 cell line (ATCC), mouse B-cell lymphoma, were maintained in lymphocyte growth medium (LGM): RPMI-1640 supplemented with 10% FBS, 1% penicillin-streptomycin. Fresh 1% (vol) Monothioglycerol was also added to the culture. The cell suspension of 2×10^6 to 4×10^6 cells per dish was cultured at 37° C., 5% CO2. The cells were suspended in PBS (5×10^7 cells/mL).
as §3, with “mm^3. […]” for “mm^3.”

B-cell lymphoma A20 = settings: previously reported, Sagiv-Barfi et al. PNAS 2015; cited from earlier work

## CC#CC(=O)N1CC[C@@H](n2c(=O)n(-c3ccc(Oc4ccccc4)cc3)c3c(N)ncnc32)C1 [Compound A1, (R)-6-amino-9-(1-(but-2-ynoyl)pyrrolidin-3-yl)-7-(4-phenoxyphenyl)-7H-purin-8(9H)-one]
[1]; day 0
  average tumor volume (±standard error): 0 (±0) mm^3
[1]; day 4
  average tumor volume (±standard error): 71 (±16) mm^3
  tumor growth inhibition rate (TGI): 8%
[1]; day 7
  average tumor volume (±standard error): 247 (±34) mm^3
  tumor growth inhibition rate (TGI): 30%
[1]; day 10
  average tumor volume (±standard error): 874 (±108) mm^3
  tumor growth inhibition rate (TGI): 7%
[1]; day 12
  average tumor volume (±standard error): 1851 (±226) mm^3
  tumor growth inhibition rate (TGI): −0.7%
[1]; day 14
  average tumor volume (±standard error): 3279 (±321) mm^3
  tumor growth inhibition rate (TGI): −0.2%
[2]; day 0
  average body weight (±standard error): 15 (±0.4) g
[2]; day 4
  average body weight (±standard error): 16 (±0.4) g
[2]; day 7
  average body weight (±standard error): 16 (±0.4) g
[2]; day 10
  average body weight (±standard error): 17 (±0.5) g
[2]; day 12
  average body weight (±standard error): 18 (±0.4) g
[2]; day 14
  average body weight (±standard error): 19 (±0.5) g
[3]; day 0
  average body weight (±standard error): 19 (±0.4) g
[3]; day 2
  average body weight (±standard error): 19 (±0.4) g
[3]; day 6
  average body weight (±standard error): 20 (±0.3) g
[3]; day 9
  average body weight (±standard error): 20 (±0.3) g
[3]; day 12
  average body weight (±standard error): 21 (±0.3) g
[3]; day 15
  average body weight (±standard error): 21 (±0.3) g
[3]; day 19
  average body weight (±standard error): 22 (±0.4) g
[4]; day 0
  average tumor volume (±standard error): 168 (±11) mm^3
  tumor growth inhibition rate (TGI, as compared to tumors of the vehicle control group): 0.8%
[4]; day 2
  average tumor volume (±standard error): 248 (±18) mm^3
  tumor growth inhibition rate (TGI, as compared to tumors of the vehicle control group): 14%
[4]; day 6
  average tumor volume (±standard error): 331 (±32) mm^3
  tumor growth inhibition rate (TGI, as compared to tumors of the vehicle control group): 23%
[4]; day 9
  average tumor volume (±standard error): 632 (±61) mm^3
  tumor growth inhibition rate (TGI, as compared to tumors of the vehicle control group): −12%
[4]; day 12
  average tumor volume (±standard error): 805 (±104) mm^3
  tumor growth inhibition rate (TGI, as compared to tumors of the vehicle control group): 9%
[4]; day 15
  average tumor volume (±standard error): 1408 (±157) mm^3
  tumor growth inhibition rate (TGI, as compared to tumors of the vehicle control group): 8%
[4]; day 19
  average tumor volume (±standard error): 2553 (±272) mm^3
  tumor growth inhibition rate (TGI, as compared to tumors of the vehicle control group): 10%

## C=CC(=O)N1CCC[C@@H](n2nc(-c3ccc(Oc4ccccc4)cc3)c3c(N)ncnc32)C1 [ibrutinib, 1-[(3R)-3-[4-Amino-3-(4-phenoxyphenyl)-1H-pyrazolo[3,4-d]pyrimidin-1-yl]piperidin-1-yl]prop-2-en-1-one]
B-cell lymphoma A20
  sensitivity of B-cell lymphoma A20 to the Btk inhibitor: would not be sensitive
